Laboratory results reported in publication PMC11678777, “Haloperidol-Induced Catalepsy and Its Correlations with Acetylcholinesterase Activity in Different Brain Structures of Mice” (Neurology International, 2024).

Molecular target: T1, commercial enzyme AChE from Electrophorus electricus (Electrophorus electricus, UniProt O42275)
T1 construct: commercial enzyme (Sigma), native
Assay: Ellman assay, […] nm, 96-well plate
Assay type: biochemical
Details: AChE 1 U/mL; phosphate buffer 0.1 mol/L pH 8.0; 10 µL of 20 mmol/L acetylthiocholine iodide in 200 µL; 10 min preincubation, room temperature; Haldol formulation

T1 sequence (O42275 24-633): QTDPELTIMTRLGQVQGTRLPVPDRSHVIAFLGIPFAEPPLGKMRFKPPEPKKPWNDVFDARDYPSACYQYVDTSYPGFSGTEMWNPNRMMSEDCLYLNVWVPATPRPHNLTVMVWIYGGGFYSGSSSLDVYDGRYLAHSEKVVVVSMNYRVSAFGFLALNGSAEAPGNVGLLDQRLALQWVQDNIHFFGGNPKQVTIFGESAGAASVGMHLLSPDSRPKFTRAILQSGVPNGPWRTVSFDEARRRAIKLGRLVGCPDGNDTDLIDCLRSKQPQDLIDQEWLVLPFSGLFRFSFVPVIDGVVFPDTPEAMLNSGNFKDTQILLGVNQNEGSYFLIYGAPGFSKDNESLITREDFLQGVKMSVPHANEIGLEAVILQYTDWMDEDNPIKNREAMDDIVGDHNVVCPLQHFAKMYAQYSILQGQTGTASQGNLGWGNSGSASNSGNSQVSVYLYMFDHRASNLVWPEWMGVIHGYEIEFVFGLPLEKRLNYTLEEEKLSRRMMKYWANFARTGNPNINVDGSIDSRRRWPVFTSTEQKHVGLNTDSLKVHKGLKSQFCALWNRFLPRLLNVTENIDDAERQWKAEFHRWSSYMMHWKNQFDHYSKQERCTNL

SMILES: O=C(CCCN1CCC(O)(c2ccc(Cl)cc2)CC1)c1ccc(F)cc1 [Haloperidol]
- dose-dependent inhibition: Hal inhibited commercial AChE activity in a dose-dependent manner
